# According to patent publication US20140315889A1, “HYDROXAMATE DERIVATIVES FOR HDAC INHIBITOR, AND THE PHARMACEUTICAL COMPOSITION COMPRISING THEREOF” (CHONG KUN DANG PHARMACEUTICAL CORP., priority 2011, published 2014):
# What was measured:
# Human recombinant HDAC1 = target: T1, Human recombinant HDAC1 (Homo sapiens, UniProt Q13547); assay: HDAC enzyme activity test, HDAC1; assay type: biochemical; conditions: Table 12; read-out: Inhibition ability (IC50) HDAC1
# T1 construct: purchased Enzo Life Science Co. (named for the kit; assigned to the enzyme from the BML- catalogue prefix) BML-SE456
# Protocol: (§1) Then, 0.3 μg of enzyme and 10 μM of substrate per well were added, reacted at 30° C. for 60 minutes. Thereto, Fluor de Lys® Developer II (BML-KI176) was added and reacted for 30 minutes. […] From the data, the respective IC50 were calculated by GraphPad Prism 4.0 program.
# human recombinant HDAC6 = target: T2, human recombinant HDAC6 (Homo sapiens, UniProt Q9UBN7); assay: HDAC enzyme activity test, HDAC6; assay type: biochemical; conditions: for Selectivity for HDAC6, HD1/HD6 / IC50: Table 12; for Selectivity for HDAC6, HD1/HD6: ratio HDAC1 IC50 / HDAC6 IC50; for IC50: read-out: Inhibition ability (IC50) HDAC6
# T2 construct: purchased Calibiochem Co. (so in the source) 382180
# T2 sequence (Q9UBN7 1-1215): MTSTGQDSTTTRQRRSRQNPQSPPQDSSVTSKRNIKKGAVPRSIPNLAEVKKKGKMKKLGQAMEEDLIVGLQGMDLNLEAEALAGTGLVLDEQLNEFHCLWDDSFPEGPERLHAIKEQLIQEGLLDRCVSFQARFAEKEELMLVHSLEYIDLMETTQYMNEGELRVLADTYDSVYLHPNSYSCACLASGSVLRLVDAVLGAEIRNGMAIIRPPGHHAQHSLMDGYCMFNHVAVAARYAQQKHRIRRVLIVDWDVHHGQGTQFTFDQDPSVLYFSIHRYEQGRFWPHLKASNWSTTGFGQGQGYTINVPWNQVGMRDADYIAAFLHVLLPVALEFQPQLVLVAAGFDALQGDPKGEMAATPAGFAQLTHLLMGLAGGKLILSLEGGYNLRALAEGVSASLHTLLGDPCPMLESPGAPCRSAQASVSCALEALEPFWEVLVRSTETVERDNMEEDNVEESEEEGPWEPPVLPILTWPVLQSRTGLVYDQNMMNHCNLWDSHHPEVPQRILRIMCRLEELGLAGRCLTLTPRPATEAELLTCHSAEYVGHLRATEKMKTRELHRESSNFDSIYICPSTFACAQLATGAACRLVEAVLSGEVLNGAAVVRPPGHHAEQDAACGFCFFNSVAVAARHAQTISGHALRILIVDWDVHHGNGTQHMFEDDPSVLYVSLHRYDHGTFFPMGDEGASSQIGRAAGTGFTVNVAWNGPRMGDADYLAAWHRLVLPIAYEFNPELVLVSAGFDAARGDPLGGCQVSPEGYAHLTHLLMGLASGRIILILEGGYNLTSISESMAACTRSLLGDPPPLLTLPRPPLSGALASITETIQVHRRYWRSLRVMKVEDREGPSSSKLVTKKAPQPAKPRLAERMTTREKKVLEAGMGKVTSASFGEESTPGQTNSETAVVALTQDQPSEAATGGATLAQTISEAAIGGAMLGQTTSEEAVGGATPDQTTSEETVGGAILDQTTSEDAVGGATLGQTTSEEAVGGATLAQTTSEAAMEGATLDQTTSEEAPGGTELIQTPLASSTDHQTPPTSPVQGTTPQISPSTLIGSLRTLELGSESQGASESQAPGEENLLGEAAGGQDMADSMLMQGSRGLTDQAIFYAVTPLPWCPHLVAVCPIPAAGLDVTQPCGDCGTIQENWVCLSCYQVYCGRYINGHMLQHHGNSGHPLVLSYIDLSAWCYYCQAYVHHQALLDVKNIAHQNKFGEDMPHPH
# Protocol: as §1
# T1 sequence (Q13547 whole entry): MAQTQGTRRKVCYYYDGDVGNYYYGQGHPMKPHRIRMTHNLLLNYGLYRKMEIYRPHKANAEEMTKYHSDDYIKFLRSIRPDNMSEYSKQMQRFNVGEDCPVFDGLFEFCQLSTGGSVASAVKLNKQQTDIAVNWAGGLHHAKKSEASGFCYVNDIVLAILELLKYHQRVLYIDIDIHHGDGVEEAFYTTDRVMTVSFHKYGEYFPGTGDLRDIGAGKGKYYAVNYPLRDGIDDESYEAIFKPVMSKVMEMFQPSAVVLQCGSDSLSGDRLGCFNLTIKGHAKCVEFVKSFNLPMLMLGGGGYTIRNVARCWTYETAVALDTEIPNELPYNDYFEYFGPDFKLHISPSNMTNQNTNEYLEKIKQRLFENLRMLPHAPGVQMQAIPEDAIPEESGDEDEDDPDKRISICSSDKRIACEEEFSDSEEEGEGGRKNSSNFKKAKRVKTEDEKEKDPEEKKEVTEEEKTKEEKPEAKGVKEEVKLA
Structure (SMILES),IC50 (Human recombinant HDAC1) [µM],"Selectivity for HDAC6, HD1/HD6 (human recombinant HDAC6)",IC50 (human recombinant HDAC6) [nM],selectivity for HDAC6 over HDAC1 (human recombinant HDAC6; from the data of Table 12)
"CN1CCN(CCN2CCc3c(c4ccccc4n3Cc3ccc(C(=O)NO)cc3)C2=O)CC1 [Compound 251, N-hydroxy-4-((2-(2-(4-methylpiperazin-1-yl)ethyl)-1-oxo-1,2,3,4-tetrahydropyrido[4,3-b]indol-5-yl)methyl)benzamide]",1.45,820.3,1.77,–
O=C(NO)c1ccc(Cn2c3c(c4cc(F)ccc42)C(=O)N(CCN2CCOCC2)CC3)cc1 [Compound 266],2.91,2851,1.02,–
"O=C(NO)c1ccc(Cn2c3c(c4ccccc42)C(=O)N(CCN2CCC[C@H]2CO)CC3)cc1 [Compound 267, (S)—N-hydroxy-4-((2-(2-(2-(hydroxymethyl)pyrrolidin-1-yl)ethyl)-1-oxo-1,2,3,4-tetrahydropyrido[4,3-b]indol-5-yl)methyl)benzamide]",2.27,678.8,3.35,–
"Cc1c2c(n(Cc3ccc(C(=O)NO)cc3)c1C)CCC(CN1CCOCC1)C2=O (stereo not shown) [Compound 268, 4-((2,3-dimethyl-5-(morpholinomethyl)-4-oxo-4,5,6,7-tetrahydroindol-1-yl)methyl)-N-hydroxybenzamide]",6.05,448.4,13.5,–
"O=C(NO)c1ccc(Cn2c3c(c4cc(F)ccc42)C(=O)C(CN2CC[C@@H](F)C2)CC3)cc1 (stereo partly drawn) [Compound 283, 4-((6-fluoro-3-(((R)-3-fluoropyrrolidin-1-yl)methyl)-4-oxo-1,2,3,4-tetrahydrocarbazol-9-yl)methyl)-N-hydroxybenzamide]",11.8,1420.6,8.29,–
"COCCN1CCN(CC2CCc3c(c4cc(F)ccc4n3Cc3ccc(C(=O)NO)cc3)C2=O)CC1 (stereo not shown) [Compound 284, 4-((6-fluoro-3-((4-(2-methoxyethyl)piperazin-1-yl)methyl)-4-oxo-1,2,3,4-tetrahydrocarbazol-9-yl)methyl)-N-hydroxybenzamide]",10.7,1435.7,7.47,–
"COC[C@@H]1CCCN1CCN1CCc2c(c3cc(F)ccc3n2Cc2ccc(C(=O)NO)cc2)C1=O [Compound 285, (S)-4-((8-fluoro-2-(2-(2-(methoxymethyl)pyrrolidin-1-yl)ethyl)-1-oxo-1,2,3,4-tetrahydropyrido[4,3-b]indol-5-yl)methyl)-N-hydroxybenzamide]",13.2,588.2,22.5,–
"O=C(NO)c1ccc(Cn2c3c(c4cc(F)ccc42)C(=O)N(CCN2CCC(CO)CC2)CC3)cc1 [Compound 286, 4-((8-fluoro-2-(2-(4-(hydroxymethyl)piperidin-1-yl)ethyl)-1-oxo-1,2,3,4-tetrahydropyrido[4,3-b]indol-5-yl)methyl)-N-hydroxybenzamide]",10.6,607,17.4,–
"CN1CCN(CCN2CCc3c(c4cc(F)ccc4n3Cc3ccc(C(=O)NO)cc3)C2=O)CC1 [Compound 287, 4-((8-fluoro-2-(2-(4-methylpiperazin-1-yl)ethyl)-1-oxo-1,2,3,4-tetrahydropyrido[4,3-b]indol-5-yl)methyl)-N-hydroxybenzamide]",8.2,715.1,11.5,–
"O=C(NO)c1ccc(Cn2c3c(c4cc(F)ccc42)C(=O)N(CCN2CCN(CCO)CC2)CC3)cc1 [Compound 288, 4-((8-fluoro-2-(2-(4-(2-hydroxyethyl)piperazin-1-yl)ethyl)-1-oxo-1,2,3,4-tetrahydropyrido[4,3-b]indol-5-yl)methyl)-N-hydroxybenzamide]",7.51,708.9,10.6,–
"O=C(NO)c1ccc(Cn2c3c(c4cc(F)ccc42)C(=O)N(CCN2CCC[C@@H]2CO)CC3)cc1 [Compound 289, (R)-4-((8-fluoro-2-(2-(2-(hydroxymethyl)pyrrolidin-1-yl)ethyl)-1-oxo-1,2,3,4-tetrahydropyrido[4,3-b]indol-5-yl)methyl)-N-hydroxybenzamide]",7.98,691.2,11.5,–
"O=C(NO)c1ccc(Cn2c3c(c4cc(F)ccc42)C(=O)N(CCN2CCC[C@H]2CO)CC3)cc1 [Compound 290, (S)-4-((8-fluoro-2-(2-(2-(hydroxymethyl)pyrrolidin-1-yl)ethyl)-1-oxo-1,2,3,4-tetrahydropyrido[4,3-b]indol-5-yl)methyl)-N-hydroxybenzamide]",6.41,2925.1,2.19,"more than 2,900 times"
"CN1CCCN(CCN2CCc3c(c4cc(F)ccc4n3Cc3ccc(C(=O)NO)cc3)C2=O)CC1 [Compound 291, 4-((8-fluoro-2-(2-(4-methyl-1,4-diazepan-1-yl)ethyl)-1-oxo-1,2,3,4-tetrahydropyrido[4,3-b]indol-5-yl)methyl)-N-hydroxybenzamide]",7.92,426.3,18.6,–
"CN(CCO)CCN1CCc2c(c3cc(F)ccc3n2Cc2ccc(C(=O)NO)cc2)C1=O [Compound 292, 4-((8-fluoro-2-(2-((2-hydroxyethyl)(methyl)amino)ethyl)-1-oxo-1,2,3,4-tetrahydropyrido[4,3-b]indol-5-yl)methyl)-N-hydroxybenzamide]",10,781.3,12.8,–
"O=C(NO)c1ccc(Cn2c3ccc(F)cc3c3c(=O)[nH]ccc32)cc1 [Compound 305, 4-((8-fluoro-1-oxo-1,2-dihydropyrido[4,3-b]indol-5-yl)methyl)-N-hydroxybenzamide]",2.45,980.4,2.5,–
"O=C(NO)c1ccc(Cn2c3c(c4cc(F)ccc42)C(=O)NCC3)cc1 [Compound 306, 4-((8-fluoro-1-oxo-1,2,3,4-tetrahydropyrido[4,3-b]indol-5-yl)methyl)-N-hydroxybenzamide]",3.23,1041.9,3.1,–
"O=C(CCCCCn1c2c(c3cc(F)ccc31)C(=O)C(CN1CCOCC1)CC2)NO (stereo not shown) [Compound 321, 6-(6-fluoro-3-(morpholinomethyl)-4-oxo-1,2,3,4-tetrahydrocarbazol-9-yl)-N-hydroxyhexanamide]",13.3,121.8,110,–
"O=C(CCCCCn1c2c(c3cc(F)ccc31)C(=O)C(CN1CCN(c3ccc(F)cc3)CC1)CC2)NO (stereo not shown) [Compound 322, 6-(6-fluoro-3-((4-(4-fluorophenyl)piperazin-1-yl)methyl)-4-oxo-1,2,3,4-tetrahydrocarbazol-9-yl)-N-hydroxyhexanamide]",7.44,40.8,182,–
"CC1CN(CC2CCc3c(c4cc(F)ccc4n3CCCCCC(=O)NO)C2=O)CC(C)O1 (stereo not shown) [Compound 323, 6-(3-((2,6-dimethylmorpholino)methyl)-6-fluoro-4-oxo-1,2,3,4-tetrahydrocarbazol-9-yl)-N-hydroxyhexanamide]",8.97,102.2,87.8,–
